# Source: PMC6724193 (ACS infectious diseases, 2019)
# Where “and” joins values, the source holds several entries; their conditions need not be identical. Identical values can stand only once. Entries after “also recorded” stand apart in the source; their conditions may differ. Like-named read-outs stand apart in the source and are kept apart here. Marks after values point to notes of the source that are not given here.
# What was measured:
# [1] = for t1/2 (i.v.): 5 mg/kg i.v., terminal elimination half-life; for F (oral bioavailability) / AUC0–∞ (i.v.) / CL (i.v.) / Vd (i.v.) / AUC0–∞ (p.o.): mouse, in vivo; for AUC0–∞ (i.v.) / CL (i.v.) / Vd (i.v.): iv, 5 mg/kg; for AUC0–∞ (p.o.): po, 25 mg/kg
# [2] = target: E. coli biotin synthase (EcBioB) (Escherichia coli, UniProt P12996); assay: biochemical; format: biochemical; settings: for IC50: 5 μM EcBioB dimer, 10 μM DTB, 100 μM SAM, single-turnover
# E. coli K-12 = assay: Intracellular accumulation of antibiotics; format: cell-based
# [3] = test system: M. tuberculosis strain carrying two copies of the bioB gene; assay: MIC against BioB merodiploid strain; format: cell-based
# M. africanum = assay: microbe, parasite or virus in culture; format: cell-based
# M. tuberculosis (6) MDR+ = assay: microbe, parasite or virus in culture; format: cell-based; settings: Mycobacterium tuberculosis
# M. tuberculosis H37Rv [4] = assay: MIC against M. tuberculosis H37Rv; format: cell-based, Mycobacterium tuberculosis
# E. coli ATCC 25922 = assay: MIC, broth microdilution, E. coli; settings: Escherichia coli, ATCC25922
# M. smegmatis mc^2155 = assay: MIC90 against M. smegmatis; format: cell-based; settings: ≥90% growth inhibition
# M. tuberculosis (7) MDR = assay: microbe, parasite or virus in culture; format: cell-based; settings: Mycobacterium tuberculosis
# Vero = settings: African green monkey, 72 h
# M. tuberculosis H37Rv [5] = format: cell-based
# M. tuberculosis (2) XDR = assay: microbe, parasite or virus in culture; format: cell-based; settings: Mycobacterium tuberculosis
# M. bovis BCG = assay: microbe, parasite or virus in culture; format: cell-based
# M. tuberculosis HN878 = assay: microbe, parasite or virus in culture; format: cell-based; settings: Mycobacterium tuberculosis
# HepG2 = settings: human, 72 h
# A. baumannii (AB5075) = assay: MIC, broth microdilution, A. baumannii; settings: Acinetobacter baumannii
# S. aureus (USA300) = assay: MIC, broth microdilution, S. aureus; settings: Staphylococcus aureus
# P. aeruginosa (PA14) = assay: MIC, broth microdilution, P. aeruginosa; settings: Pseudomonas aeruginosa
# [6] = test system: M. tuberculosis (8) drug-sensitive clinical isolates; assay: microbe, parasite or virus in culture; format: cell-based; settings: Mycobacterium tuberculosis
# E. faecalis (V583) = assay: MIC, broth microdilution, E. faecalis; settings: Enterococcus faecalis
# M. tuberculosis Erdman = assay: microbe, parasite or virus in culture; format: cell-based; settings: Mycobacterium tuberculosis
# M. abscessus (4) = assay: MIC against M. abscessus; format: cell-based; settings: Mycobacteroides abscessus
# [7] = test system: non-tuberculosis mycobacteria, gram-positive and gram-negative pathogens; assay: organism not typed; format: cell-based
# M. avium complex (3) = assay: MIC against M. avium complex; format: cell-based; settings: Mycobacterium avium
# [8] = test system: biotinylated proteome of M. tuberculosis; format: cell-based, M. tuberculosis H37Ra
# [9] = test system: biotin pathway intermediates (vitamers); settings: acidomycin added to culture media; cited from earlier work
# [10] = test system: M. tuberculosis infection; settings: cited from earlier work
# mycobacteria = settings: cited from earlier work
# [11] = target: MtBPL (M. tuberculosis biotin protein ligase) (Mycobacterium tuberculosis, UniProt I6YFP0); format: binding
# [12] = test system: gram-positive and gram-negative bacteria or fungi; settings: cited from earlier work
# Chain of E. coli biotin synthase (EcBioB) (P12996 whole entry): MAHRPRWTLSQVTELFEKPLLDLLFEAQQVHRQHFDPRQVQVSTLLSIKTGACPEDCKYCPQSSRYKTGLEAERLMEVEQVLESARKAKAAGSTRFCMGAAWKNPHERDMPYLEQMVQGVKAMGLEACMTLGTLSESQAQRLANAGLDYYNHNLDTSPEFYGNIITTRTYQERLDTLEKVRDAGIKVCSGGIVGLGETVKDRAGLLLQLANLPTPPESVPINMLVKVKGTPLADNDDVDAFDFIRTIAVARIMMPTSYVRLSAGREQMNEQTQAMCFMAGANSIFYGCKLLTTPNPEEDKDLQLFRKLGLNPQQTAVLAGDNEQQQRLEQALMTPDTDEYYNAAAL
# Chain of MtBPL (M. tuberculosis biotin protein ligase) (I6YFP0 whole entry, looked up): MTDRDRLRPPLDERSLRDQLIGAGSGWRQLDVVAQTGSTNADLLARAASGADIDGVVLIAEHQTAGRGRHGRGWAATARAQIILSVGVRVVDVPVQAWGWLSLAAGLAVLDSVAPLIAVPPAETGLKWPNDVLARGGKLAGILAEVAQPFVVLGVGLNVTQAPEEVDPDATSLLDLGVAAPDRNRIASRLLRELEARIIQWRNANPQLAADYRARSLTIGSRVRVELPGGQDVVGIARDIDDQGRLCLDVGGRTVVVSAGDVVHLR
smiles,measurement,setting,value
O=C(O)CCCCC[C@H]1NC(=O)CS1 [(S)-(−)-acidomycin],t1/2 (i.v.),[1],14.4 ± 0.1 min
same,F (oral bioavailability),[1],8 ± 1%
same,AUC0–∞ (i.v.),[1],2116 ± 115 ng·h/mL
same,CL (i.v.),[1],39.38 ± 2.1 mL/min/kg
same,Vd (i.v.),[1],0.82 ± 0.05 L/kg
same,AUC0–∞ (p.o.),[1],890 ± 106 ng·h/mL
same,IC50,[2],13.3 ± 1.8 µM
"CO[C@H]1/C=C/O[C@@]2(C)Oc3c(C)c(O)c4c(O)c(c(/C=N/N5CCN(C)CC5)c(O)c4c3C2=O)NC(=O)/C(C)=C\C=C\[C@H](C)[C@H](O)[C@@H](C)[C@@H](O)[C@@H](C)[C@H](OC(C)=O)[C@@H]1C [Rifampicin, reference compound]",IC/EC Ratio,E. coli K-12,2.1
"O=C(O)CCCCCC1NC(=O)CS1 (racemic) [(±)-acidomycin, 6-(4-Oxothiazolidin-2-yl)hexanoic acid]",change of MIC in BioB merodiploid versus H37Rv,[3],increase in the MIC
same,MIC,M. africanum,0.20 µM
same,MIC,M. africanum; Mycobacterium tuberculosis,0.2 µM
same,MIC,M. tuberculosis (6) MDR+,0.2 to 4.8 µM
same,MIC,M. tuberculosis H37Rv [4],1.56 µM
same,effect on M. tuberculosis viability,M. tuberculosis H37Rv [4],bacteriostatic
same,fold difference in MIC relative to (S)-(−)-acidomycin,M. tuberculosis H37Rv [4],about 2.5 fold
same,MIC,"M. tuberculosis H37Rv [4]; Mycobacterium tuberculosis, H37RV",1.6 µM
same,Ki,[2],2 ± 1.3 µM
same,modality of inhibition,[2],competitive inhibitor; also recorded: competitive inhibition
same,MIC90,E. coli ATCC 25922,> 1000 µM
same,MIC90,M. smegmatis mc^2155,10^d μM
same,MIC,M. tuberculosis (7) MDR,0.6 to 6.2 µM
same,EC (greater than 50% inhibition of cell viability),Vero,>1000^e μM
same,effect of KAPA supplementation on growth inhibition,M. tuberculosis H37Rv [5],no effect
same,effect of biotin supplementation on growth inhibition,M. tuberculosis H37Rv [5],completely rescued
same,shift of MIC by DTB supplementation,M. tuberculosis H37Rv [5],approximately two-fold
same,IC/EC Ratio,E. coli K-12,1.6 and 1.6 ± 0.4
same,"Intracellular Concentration, −biotin",E. coli K-12,80 µM
same,"Accumulation, −biotin","E. coli K-12; E. coli, 50 μM extracellular",80 ± 20 nmol/10^12 CFUs
same,"Accumulation, +biotin","E. coli K-12; E. coli, 50 μM extracellular, 1 μM biotin",61 ± 2 nmol/10^12 CFUs
same,"Intracellular Concentration, −biotin","E. coli K-12; E. coli, cell volume 1.0 μm^3",80 ± 20 µM
same,MIC,M. tuberculosis (2) XDR,0.096 to 1.2 µM
same,MIC,M. bovis BCG,1.30 µM
same,MIC,"M. bovis BCG; Mycobacterium tuberculosis variant bovis BCG, BCG",1.3 µM
same,MIC,M. tuberculosis HN878,0.6 µM
same,EC (greater than 50% inhibition of cell viability),HepG2,>1000^e μM
same,MIC90,A. baumannii (AB5075),> 1000 µM
same,MIC90,S. aureus (USA300),> 1000 µM
same,MIC90,P. aeruginosa (PA14),> 1000 µM
same,MIC,[6],0.096 to 6.2 µM
same,"Accumulation, +biotin",M. tuberculosis H37Ra,1150 ± 40 nmol/10^12 CFUs
same,"Accumulation, −biotin",M. tuberculosis H37Ra,1300 ± 400 nmol/10^12 CFUs
same,"Intracellular Concentration, −biotin",M. tuberculosis H37Ra,2600 ± 800 µM
same,fold higher accumulation in M. tuberculosis than in E. coli,M. tuberculosis H37Ra,approximately 30 fold
same,impact of exogenous biotin on cellular accumulation in M. tuberculosis,M. tuberculosis H37Ra,little impact
same,MIC90,E. faecalis (V583),> 1000 µM
same,MIC,M. tuberculosis Erdman,1.56 µM
same,MIC,M. abscessus (4),> 100 µM
same,activity toward representative gram-negative and gram-positive pathogens,[7],inactive
same,MIC,M. avium complex (3),> 100 µM
"Nc1ncnc2c1ncn2[C@@H]1O[C@H](CNS(=O)(=O)NC(=O)CCCC[C@@H]2SC[C@@H]3NC(=O)N[C@@H]32)[C@@H](O)[C@H]1O [Bio-AMS, 5ʹ-[N-(D-biotinoyl)sulfamoyl]amino-5ʹ-deoxyadenosine]",impact on global protein biotinylation,[8],noticeable decrease in protein band intensity
"CN(C)[C@@H]1C(O)=C(C(N)=O)C(=O)[C@@]2(O)C(O)=C3C(=O)c4c(O)cccc4[C@@](C)(O)[C@H]3C[C@@H]12 [Tetracycline, reference compound]","Accumulation, +biotin",E. coli K-12,1600 ± 100 nmol/10^12 CFUs
same,"Accumulation, −biotin",E. coli K-12,3100 ± 120 nmol/10^12 CFUs
same,"Accumulation, +biotin",M. tuberculosis H37Ra,2220 ± 50 nmol/10^12 CFUs
same,"Accumulation, −biotin",M. tuberculosis H37Ra,2200 ± 200 nmol/10^12 CFUs
O=C(O)CCCCC[C@@H]1NC(=O)CS1 [(R)-(+)-acidomycin],t1/2 (i.v.),[1],19.2 ± 2.4 min
same,F (oral bioavailability),[1],16 ± 7%
same,AUC0–∞ (i.v.),[1],2055 ± 564 ng·h/mL
same,CL (i.v.),[1],40.55 ± 8.03 mL/min/kg
same,Vd (i.v.),[1],1.12 ± 0.37 L/kg
same,AUC0–∞ (p.o.),[1],1591 ± 718 ng·h/mL
same,MIC,M. tuberculosis H37Rv [4],7.7 µM
same,fold difference in MIC relative to (S)-(−)-acidomycin,M. tuberculosis H37Rv [4],thirteen-fold less active
same,IC50,[2],> 100 µM
same,inhibition of EcBioB,[2]; at 100 μM,less than 30%
O=C(O)CCCCCC1NC(=O)CS1 (stereo not shown) [acidomycin],solubility,physchem,< 4000 µM
same,increase of accumulation of biotin pathway intermediates (vitamers),[9],two- to seventy-fold
same,"difference in whole cell activity, E. coli versus M. tuberculosis",M. tuberculosis H37Rv [4],> 100 fold
same,Ki,[2],~1 µM
same,production of 5′-deoxyadenosine by BioB,[2],significantly enhanced
same,time-dependent inhibition,[2],did not exhibit time-dependent inhibition
same,activity against an M. tuberculosis infection in vivo,[10],inactive
same,increase in inhibitory concentrations after growth in the presence of acidomycin,mycobacteria,two-fold
same,concentrations required to inhibit the growth of mycobacteria in vitro,mycobacteria; converted value,1.2 to 46.0 µM
same,binding to MtBPL,[11],does not bind to MtBPL
same,concentration without growth inhibition,[12],> 1 mg/mL
same,concentration without growth inhibition,[12]; converted value,> 4.6 mM
same,susceptibility of NTM strains,[7],intrinsically resistant
same,MIC,[7]; read-out: MICs,> 1000 µM
CSc1ccc2c(c1)N(CCC1CCCCN1C)c1ccccc1S2 (stereo not shown) [Thioridazine],"Accumulation, +biotin",M. tuberculosis H37Ra,5.2 ± 0.4 nmol/10^12 CFUs
same,"Accumulation, −biotin",M. tuberculosis H37Ra,18 ± 1 nmol/10^12 CFUs
same,IC/EC Ratio,M. tuberculosis H37Ra,0.7 and 0.72 ± 0.04
same,"Intracellular Concentration, −biotin",M. tuberculosis H37Ra,36 ± 2 µM
